Assay results taken from patent publication US7166598B2, “Piperazine derivatives” (Astellas Pharma Inc., priority 1998, dated 2007).

Structure (SMILES) | melting point
COc1cc(C[C@@H]2CN(CCCc3cccnc3)CCN2C(=O)c2cc(C(F)(F)F)cc(C(F)(F)F)c2)ccc1F.Cl.Cl | 125 to 130 °C
COc1cc(C(=O)N2CCN(Cc3cnn(C)c3)C[C@H]2Cc2ccc(Cl)cc2)cc(C(F)(F)F)c1.Cl | 70 to 100 °C
Cl.Cn1cc(CN2CCN(C(=O)c3cc(C(F)(F)F)cc(C(F)(F)F)c3)[C@H](Cc3ccc(F)cc3)C2)cn1 | 143.3 to 146.4 °C
COc1cc(C(=O)N2CCN(Cc3cnn(C)c3)C[C@H]2Cc2ccc3ccccc3c2)cc(C(F)(F)F)c1.Cl | 226 to 228 °C
COc1cc(C(=O)N2CCN(Cc3cccnc3)C[C@H]2Cc2ccc(C(F)(F)F)cc2)cc(C(F)(F)F)c1.Cl.Cl | 101 to 108 °C
Cl.Cl.O=C(c1cc(C(F)(F)F)cc(C(F)(F)F)c1)N1CCN(Cc2cccnc2)C[C@H]1Cc1ccc(Cl)c(O)c1 | 187 to 192 °C
COC[C@@H]1CN(CCN2CCN(C(=O)c3cc(C(F)(F)F)cc(S(=O)(=O)N4CCCC4)c3)[C@H](Cc3ccc(C)c(O)c3)C2)CCO1.Cl.Cl | 125 to 177 °C
COC[C@@H]1CN(CCN2CCN(C(=O)c3cc(C(F)(F)F)cc(S(=O)(=O)N4CCOCC4)c3)[C@H](Cc3ccc(C)c(O)c3)C2)CCO1.Cl.Cl | 130 to 175 °C
CSc1cc(C(=O)N2CCN(CCN3CCc4ncccc4C3)C[C@H]2Cc2ccc(Cl)c(O)c2)cc(C(F)(F)F)c1.Cl.Cl.Cl | 169 to 178 °C
COC[C@@H]1CN(CCN2CCN(C(=O)c3cc([N+](=O)[O-])cc(C(F)(F)F)c3)[C@H](Cc3ccc(C)c(O)c3)C2)CCO1.Cl.Cl | 181 to 185 °C
COC[C@@H]1CN(CCN2CCN(C(=O)c3cc(N(C)C)cc(C(F)(F)F)c3)[C@H](Cc3ccc(C)c(O)c3)C2)CCO1.Cl.Cl | 182 to 186 °C
COC[C@@H]1CN(C/C=C/CN2CCN(C(=O)c3cc(C(F)(F)F)cc(C(F)(F)F)c3)[C@H](Cc3ccc(C)c(O)c3)C2)CCO1.Cl.Cl | 50 to 70 °C
Cc1ccc(C[C@@H]2CN(Cc3cccnc3)CCN2C(=O)c2cc(C(F)(F)F)cc(C(F)(F)F)c2)cc1O.Cl.Cl | 110 to 130 °C
Cc1ccc(C[C@@H]2CN(CCN3CCc4ncccc4C3)CCN2C(=O)c2cc(C(F)(F)F)cc(C(F)(F)F)c2)cc1O.Cl.Cl.Cl | 255 to 270 °C
CSc1cc(C(=O)N2CCN(CCN3C[C@@H](C)O[C@@H](C)C3)C[C@H]2Cc2ccc(Cl)cc2)cc(C(F)(F)F)c1.Cl.Cl | 138.4 to 142.5 °C
Cc1cc(C(=O)N2CCN(CCN3CCc4ncccc4C3)C[C@H]2Cc2ccc(Cl)cc2)cc(C(F)(F)F)c1.Cl.Cl.Cl | 102.5 to 110.4 °C
Cc1ccc(CC2CN(C/C=C/c3cccnc3)CCN2C(=O)c2cc(C(F)(F)F)cc(C(F)(F)F)c2)cc1O.Cl.Cl (stereo not shown) | 60 to 80 °C
Cl.Cl.O=C(c1cc(C(F)(F)F)cc(C(F)(F)F)c1)N1CCN(CCCc2cccnc2)C[C@H]1Cc1ccc(F)cc1 | 110.2 to 117.5 °C
COc1cc(C(=O)N2CCN(CCCc3cccnc3)C[C@H]2Cc2ccc(F)cc2)cc(C(F)(F)F)c1.Cl.Cl | 111.5 to 118.3 °C
COC[C@@H]1CN(CCN2CCN(C(=O)c3cc(C(F)(F)F)cc(S(N)(=O)=O)c3)[C@H](Cc3ccc(C)c(O)c3)C2)CCO1.Cl.Cl | 166 to 206 °C
COC[C@@H]1CN(CCN2CCN(C(=O)c3cc(C(F)(F)F)cc(C(F)(F)F)c3)[C@H](Cc3ccc(C(F)(F)F)cc3)C2)[C@@H](C)CO1.Cl.Cl | 142 to 182 °C
Cl.Cl.O=C(c1cc(C(F)(F)F)cc(C(F)(F)F)c1)N1CCN(CCN2C[C@H](O)[C@@H](O)C2)C[C@H]1Cc1ccc(C(F)(F)F)cc1 | 154 to 159 °C

Structure (SMILES) | melting point
COC[C@@H]1C[C@H](COC)CN(CCN2CCN(C(=O)c3cc(C(F)(F)F)cc(C(F)(F)F)c3)[C@H](Cc3ccc(F)c(OC)c3)C2)C1.Cl.Cl | 150 to 156 °C
COC[C@@H]1CN(CCN2CCN(C(=O)c3cc(-c4ccncc4)cc(C(F)(F)F)c3)[C@H](Cc3ccc(C(F)(F)F)cc3)C2)CCO1.Cl.Cl.Cl | 81 to 91 °C
CSc1cc(C(=O)N2CCN(CCN3C[C@@H](C)O[C@@H](C)C3)C[C@H]2Cc2ccc(C(F)(F)F)cc2)cc(C(F)(F)F)c1.Cl.Cl | 154 to 156 °C
C[C@@H]1CN(CCN2CCN(C(=O)c3cc(C(F)(F)F)cc(S(C)(=O)=O)c3)[C@H](Cc3ccc(C(F)(F)F)cc3)C2)C[C@H](C)O1.Cl.Cl | 188 to 195 °C
COC[C@@H]1CN(CCN2CCN(C(=O)c3cc(SC)cc(C(F)(F)F)c3)[C@H](Cc3ccc(F)c(OC)c3)C2)CCO1.Cl.Cl | 132 to 135 °C
Cl.Cl.O=C(c1cc(C(F)(F)F)cc(C(F)(F)F)c1)N1CCN(Cc2c[nH]c3cccnc23)C[C@H]1Cc1ccc(Cl)c(O)c1 | 208 to 211 °C
COc1cc(C(=O)N2CCN(CCN3C[C@@H](C)O[C@@H](C)C3)C[C@H]2Cc2ccc(Cl)c(O)c2)cc(C(F)(F)F)c1.Cl.Cl | 177 to 182 °C
C[C@@H]1CN(CCN2CCN(C(=O)c3cc(C(F)(F)F)cc(C(F)(F)F)c3)[C@H](Cc3ccc(F)c(O)c3)C2)C[C@H](C)O1.Cl.Cl | 170 to 195 °C
C[C@@H]1CN(CCN2CCN(C(=O)c3cc(C(F)(F)F)cc(C(F)(F)F)c3)[C@H](Cc3ccc(F)c(F)c3)C2)C[C@H](C)O1.Cl.Cl | 223 to 228 °C
COC[C@@H]1CN(CCN2CCN(C(=O)c3cc(C(F)(F)F)cc(C(F)(F)F)c3)[C@H](Cc3ccc(C(F)(F)F)cc3)C2)CCO1.Cl.Cl | 146 to 159 °C
COC[C@@H]1CN(CCN2CCN(C(=O)c3cc(C(F)(F)F)cc(C(F)(F)F)c3)[C@H](Cc3ccc(C)c(F)c3)C2)CCO1.Cl.Cl | 148 to 160 °C
COC[C@@H]1CN(CCN2CCN(C(=O)c3cc(C(F)(F)F)cc(C(F)(F)F)c3)[C@H](Cc3ccc(F)c(C)c3)C2)CCO1.Cl.Cl | 151 to 156 °C
CC1(C)COCCN1CC#CCN1CCN(C(=O)c2cc(C(F)(F)F)cc(C(F)(F)F)c2)[C@H](Cc2ccc(C(F)(F)F)cc2)C1.Cl.Cl | 110 to 130 °C
CC1(C)COCCN1CC#CCN1CCN(C(=O)c2cc(C(F)(F)F)cc(C(F)(F)F)c2)[C@H](Cc2ccc(F)cc2)C1.Cl.Cl | 76.5 to 130.6 °C
COc1cc(C(=O)N2CCN(CCN3C[C@@H](C)O[C@@H](C)C3)C[C@H]2Cc2ccc(F)cc2)cc(C(F)(F)F)c1.Cl.Cl | 70.3 to 85.2 °C
Cl.Cl.O=C(c1cc(C(F)(F)F)cc(C(F)(F)F)c1)N1CCN(CCN2CCC(F)(F)CC2)C[C@H]1Cc1ccc(Cl)c(O)c1 | 166 to 170 °C
C[C@@H]1CN(CCN2CCN(C(=O)c3cc(C(F)(F)F)cc(C(F)(F)F)c3)[C@H](Cc3ccc4ccccc4c3)C2)C[C@H](C)O1.Cl.Cl | 168 to 195 °C
COc1cc(C(=O)N2CCN(CCN3CCC(F)(F)CC3)C[C@H]2Cc2ccc3ccccc3c2)cc(C(F)(F)F)c1.Cl.Cl | 243 to 260 °C
COc1cc(C(=O)N2CCN(CC#CCN3CCOCC3(C)C)C[C@H]2Cc2c[nH]c3ccccc23)cc(C(F)(F)F)c1.Cl.Cl | 190 to 200 °C
COc1cc(C(=O)N2CCN(Cc3cnn(C)c3)C[C@H]2Cc2c[nH]c3ccccc23)cc(C(F)(F)F)c1.Cl | 210 to 220 °C
COc1cc(C(=O)N2CCN(CCCc3cccnc3)C[C@H]2Cc2c[nH]c3ccccc23)cc(C(F)(F)F)c1.Cl.Cl | 135 to 145 °C
